We go through 26 compounds from patent publication US10323022B2, “Pyrrolidinyl urea, pyrrolidinyl thiourea and pyrrolidinyl guanidine compounds as TrkA kinase inhibitors” (Array BioPharma Inc., priority 2011, dated 2019).

Molecules are shown by their SMILES. Counter-ions that a name gives are not always drawn.

TrkA, sequence (P04629 33-796): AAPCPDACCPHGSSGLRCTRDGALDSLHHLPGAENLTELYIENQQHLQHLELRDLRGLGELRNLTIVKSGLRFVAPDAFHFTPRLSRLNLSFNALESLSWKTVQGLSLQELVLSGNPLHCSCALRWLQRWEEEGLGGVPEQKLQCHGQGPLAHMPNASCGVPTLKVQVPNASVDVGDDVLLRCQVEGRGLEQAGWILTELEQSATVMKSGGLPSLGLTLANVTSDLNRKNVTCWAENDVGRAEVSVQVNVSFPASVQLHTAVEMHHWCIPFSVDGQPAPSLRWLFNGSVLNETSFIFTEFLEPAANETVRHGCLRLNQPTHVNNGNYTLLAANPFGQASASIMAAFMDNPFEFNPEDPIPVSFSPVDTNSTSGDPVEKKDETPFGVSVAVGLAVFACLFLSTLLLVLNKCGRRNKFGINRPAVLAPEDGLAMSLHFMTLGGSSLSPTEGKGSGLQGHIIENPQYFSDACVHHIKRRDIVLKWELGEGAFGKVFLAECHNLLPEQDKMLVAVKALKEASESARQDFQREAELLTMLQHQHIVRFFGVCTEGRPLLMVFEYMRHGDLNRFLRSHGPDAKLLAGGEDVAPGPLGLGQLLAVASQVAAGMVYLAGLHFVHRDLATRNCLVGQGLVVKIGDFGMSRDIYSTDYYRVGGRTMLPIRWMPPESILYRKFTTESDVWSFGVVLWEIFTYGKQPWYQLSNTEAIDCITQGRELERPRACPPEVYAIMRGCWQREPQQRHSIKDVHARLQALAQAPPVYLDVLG

This test has as its target TrkA (Homo sapiens (Human), UniProt P04629). As to the kind of experiment: TrkA Omnia Assay. The test is classed as biochemical. As to conditions: averaged IC50; 20 nM enzyme, 500 μM ATP, 10 μM peptide substrate. An outline of the steps: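 Recombinant TrkA (20 nM) preincubated 10 min at ambient temperature with compound, then Omnia Tyr Peptide #4 (10 μM) and ATP (500 μM) added in 25 mM MOPS pH 7.5, 5 mM MgCl2, 0.005% Triton X-100. Fluorescence (ex 360/em 485 nm) followed continuously for 70 min; IC50 from initial rates by 4- or 5-parameter logistic fit.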
As for `CCOc1nn(-c2ccccc2)c(NC(=O)N[C@@H]2CN(CC(O)C(F)(F)F)C[C@H]2c2ccc(F)c(F)c2)c1C` (stereo partly drawn) [Example 469, 1-((3S,4R)-4-(3,4-difluorophenyl)-1-(3,3,3-trifluoro-2-hydroxypropyl)pyrrolidin-3-yl)-3-(3-ethoxy-4-methyl-1-phenyl-1H-pyrazol-5-yl)urea], the IC50 lay in the range of 1000 to 10000 nM.

`COCCN1C[C@@H](NC(=O)Nc2cc(C3CCNCC3)nn2-c2ccccc2)[C@H](c2ccc(F)c(F)c2)C1` [Example 580, 1-((3S,4R)-4-(3,4-difluorophenyvl)-1-(2-methoxyethyl)pyrrolidin-3-yl)-3-(1-phenyl-3-(piperidin-4-yl)-1H-pyrazol-5-yl)urea dihydrochloride]: the IC50 was 100 to 1000 nM.

With `O=C(Nc1c2c(nn1-c1ccccc1)CCC2)N[C@@H]1CN(CC(F)(F)F)C[C@H]1c1cccc(Cl)c1` (relative stereo) [Example 208, 1-((trans)-4-(3-chlorophenyl)-1-(2,2,2-trifluoroethyl)pyrrolidin-3-yl)-3-(2-phenyl-2,4,5,6-tetrahydrocyclopenta[c]pyrazol-3-yl)urea], the IC50 lay within 100 to 1000 nM.

The compound `COCCN1C[C@@H](NC(=O)Nc2c(Br)c(OCC(C)(C)O)nn2-c2ccccc2)[C@H](c2ccc(F)c(F)c2)C1` [Example 358, 1-(4-bromo-3-(2-hydroxy-2-methylpropoxy)-1-phenyl-1H-pyrazol-5-yl)-3-((3S,4R)-4-(3,4-difluorophenyl)-1-(2-methoxyethyl)pyrrolidin-3-yl)urea] displayed an IC50 below 100 nM.

Turning to `COCCN1C[C@@H](NC(=O)Nc2c(C)c(-c3sc(C)nc3C)nn2-c2ccccc2)[C@H](c2ccc(F)c(F)c2)C1` [Example 513, 1-((3S,4R)-4-(3,4-difluorophenyl)-1-(2-methoxyethyl)pyrrolidin-3-yl)-3-(3-(2,4-dimethylthiazol-5-yl)-4-methyl-1-phenyl-1H-pyrazol-5-yl)urea], the IC50 was below 100 nM.

The compound `COCCN1C[C@@H](NC(=O)Nc2c(Br)c(C(=O)O)nn2-c2ccccc2)[C@H](c2ccc(F)c(F)c2)C1` [Example 553, 4-bromo-5-(3-((3S,4R)-4-(3,4-difluorophenyl)-1-(2-methoxyethyl)pyrrolidin-3-yl)ureido)-1-phenyl-1H-pyrazole-3-carboxylic acid] showed an IC50 of 100 to 1000 nM.

As for `COCCN1C[C@@H](NC(=S)Nc2c(C)c(-c3cnn(C)c3)nn2-c2ccccc2)[C@H](c2ccc(F)c(F)c2)C1` [Example 632, 1-((3S,4R)-4-(3,4-difluorophenyl)-1-(2-methoxyethyl)pyrrolidin-3-yl)-3-(1′,4-dimethyl-1-phenyl-1H,1′H-3,4′-bipyrazol-5-yl)thiourea], the IC50 was below 100 nM.

As to `COCCN1C[C@@H](NC(=O)Nc2cc(-c3ccccc3)nn2C)[C@H](c2ccc(F)c(F)c2)C1` [Example 93, 1-((3S,4R)-4-(3,4-difluoro-phenyl)-1-(2-methoxyethyl)pyrrolidin-3-yl)-3-(1-methyl-3-phenyl-1H-pyrazol-5-yl)urea], the IC50 was below 100 nM.

On to `N#CCN1C[C@@H](NC(=O)Nc2c3c(nn2-c2ccccc2)CCC3)[C@H](c2ccc(F)c(F)c2)C1` [Example 186, 1-((3S,4R)-1-(cyanomethyl)-4-(3,4-difluorophenyl)pyrrolidin-3-yl)-3-(2-phenyl-2,4,5,6-tetrahydrocyclopenta[c]pyrazol-3-yl)urea], for which the IC50 is below 100 nM.

`COCCN1C[C@@H](NC(=O)Nc2cc(-c3cccc(OC)c3)nn2C)[C@H](c2ccc(F)c(F)c2)C1` [Example 105, 1-((3S,4R)-4-(3,4-difluorophenyl)-1-(2-methoxyethyl)pyrrolidin-3-yl)-3-(3-(3-methoxy-phenyl)-1-methyl-1H-pyrazol-5-yl)urea] displayed an IC50 below 100 nM.

`COC[C@@H](N1C[C@@H](NC(=O)Nc2c(C)c(OC[C@H](C)O)nn2-c2ccccc2)[C@H](c2ccc(F)c(F)c2)C1)C(F)(F)F` [Example 279, 1-((3S,4R)-4-(3,4-difluorophenyl)-1-((R)-1,1,1-trifluoro-3-methoxypropan-2-yl)pyrrolidin-3-yl)-3-(3-((S)-2-hydroxypropoxy)-4-methyl-1-phenyl-1H-pyrazol-5-yl)urea]: the IC50 lay within 100 to 1000 nM.

The compound `COCCN1C[C@@H](NC(=O)Nc2cc(C(C)(C)C)nn2-c2ccccc2C)[C@H](c2ccccc2)C1` (relative stereo) [Example 29, 1-(3-tert-butyl-1-o-tolyl-1H-pyrazol-5-yl)-3-(trans-1-(2-methoxyethyl)-4-phenylpyrrolidin-3-yl)urea] gave an IC50 of 1000 to 10000 nM.

Take `COCCN1C[C@@H](NC(=O)Nc2c(C)c(C#N)nn2-c2ccccc2)[C@H](c2ccc(F)c(F)c2)C1` [Example 349, 1-(3-cyano-4-methyl-1-phenyl-1H-pyrazol-5-yl)-3-((3S,4R)-4-(3,4-difluorophenyl)-1-(2-methoxyethyl)pyrrolidin-3-yl)urea]: the IC50 was below 100 nM.

Compound `COCCN1C[C@@H](NC(=O)Nc2c(Cl)c(OCc3ccccc3)nn2C)[C@H](c2ccc(F)c(F)c2)C1` [Example 539, 1-(3-(benzyloxy)-4-chloro-1-methyl-1H-pyrazol-5-yl)-3-((3S,4R)-4-(3,4-difluorophenyl)-1-(2-methoxyethyl)pyrrolidin-3-yl)urea] showed an IC50 of 100 to 1000 nM.

Compound `Cn1cc(CN2C[C@@H](NC(=O)Nc3c4c(nn3-c3ccccc3)CCC4)[C@H](c3ccc(F)c(F)c3)C2)nn1` [Example 253, 1-((3S,4R)-4-(3,4-difluorophenyl)-1-((1-methyl-1H-1,2,3-triazol-4-yl)methyl)pyrrolidin-3-yl)-3-(2-phenyl-2,4,5,6-tetrahydrocyclopenta[c]pyrazol-3-yl)urea] returned an IC50 of 100 to 1000 nM.

Compound `COCCN1C[C@@H](NC(=O)Nc2cc(C(C)(C)C)nn2-c2ccccc2)[C@H](c2ccccc2)C1` [Example 1, 1-(3-tert-butyl-1-phenyl-H-pyrazol-5-yl)-3-(trans-1-(2-methoxyethyl)-4-phenylpyrrolidin-3-yl)urea] showed an IC50 below 100 nM.

Consider `COCCN1C[C@@H](NC(=O)Nc2c(C)c(C(F)(F)CO)nn2-c2ccccc2)[C@H](c2ccc(F)cc2)C1` [Example 284, 1-(3-(1,1-difluoro-2-hydroxyethyl)-4-methyl-1-phenyl-1H-pyrazol-5-yl)-3-((3S,4R)-4-(4-fluorophenyl)-1-(2-methoxyethyl)pyrrolidin-3-yl)urea], for which the IC50 was below 100 nM.

In the case of `CNCCN1C[C@@H](NC(=O)Nc2c3c(nn2-c2ccccc2)CCC3)[C@H](c2ccc(F)cc2)C1` (relative stereo) [Example 256, 1-((trans)-4-(4-fluorophenyl)-1-(2-(methylamino)ethyl)pyrrolidin-3-yl)-3-(2-phenyl-2,4,5,6-tetrahydrocyclopenta[c]pyrazol-3-yl)urea], the IC50 is 100 to 1000 nM.

`COCCN1C[C@@H](NC(=O)Nc2c(Br)c(C3CCNCC3)nn2-c2ccccc2)[C@H](c2ccc(F)c(F)c2)C1` [Example 582, 1-(4-bromo-1-phenyl-3-(piperidin-4-yl)-1H-pyrazol-5-yl)-3-((3S,4R)-4-(3,4-difluorophenyl)-1-(2-methoxyethyl)pyrrolidin-3-yl)urea dihydrochloride] gave an IC50 below 100 nM.

In turn, `COCCN1C[C@@H](NC(=O)Nc2c(C)c(-c3cnn(CCO)c3)nn2-c2ccccc2)[C@H](c2ccc(F)c(F)c2)C1` [Example 350, 1-((3S,4R)-4-(3,4-difluorophenyl)-1-(2-methoxyethyl)pyrrolidin-3-yl)-3-(1′-(2-hydroxyethyl)-4-methyl-1-phenyl-1H,1′H-[3,4′-bipyrazol]-5-yl)urea] registered an IC50 below 100 nM.

As for `COCCN1C[C@@H](NC(=O)Nc2c(CO)c(COC)nn2-c2ccccc2)[C@H](c2ccc(F)c(F)c2)C1` [Example 160, 1-((3S,4R)-4-(3,4-difluorophenyl)-1-(2-methoxyethyl)pyrrolidin-3-yl)-3-(4-(hydroxymethyl)-3-(methoxymethyl)-1-phenyl-1H-pyrazol-5-yl)urea], the IC50 is 100 to 1000 nM.

In turn, `COCCN1C[C@@H](NC(=O)Nc2c(C)c(OC[C@@H](C)O)nn2-c2ccccc2)[C@H](c2ccc(F)cc2)C1` [Example 364, 1-((3S,4R)-4-(4-fluorophenyl)-1-(2-methoxyethyl)pyrrolidin-3-yl)-3-(3-((R)-2-hydroxypropoxy)-4-methyl-1-phenyl-1H-pyrazol-5-yl)urea] gave an IC50 below 100 nM.

As to `COCCN1C[C@@H](NC(=O)Nc2c(C)c(-c3cnn(C)c3)nn2-c2ccccc2)[C@H](c2ccc(C)cc2)C1` [Example 327, 1-(1′,4-dimethyl-1-phenyl-1H,1′H-[3,4′-bipyrazol]-5-yl)-3-((3S,4R)-1-(2-methoxyethyl)-4-(p-tolyl)pyrrolidin-3-yl)urea], the IC50 was below 100 nM.

Turning to `COCCN1C[C@@H](NC(=O)Nc2c3c(nn2-c2ccccc2)C(C)(C)CC3)[C@H](c2ccccc2)C1` [Example 36, 1-(6,6-dimethyl-2-phenyl-2,4,5,6-tetrahydro-yclopenta [c]pyrazol-3-yl)-3-(trans-1-(2-methoxyethyl)-4-phenyl-pyrrolidin-3-yl)urea], the IC50 was below 100 nM.

`COCCN1C[C@@H](NC(=O)Nc2c(Br)c(-c3cccnc3)nn2-c2ccccc2)[C@H](c2ccc(F)c(F)c2)C1` [Example 483, 1-(4-bromo-1-phenyl-3-(pyridin-3-yl)-1H-pyrazol-5-yl)-3-((3 S,4R)-4-(3,4-difluorophenyl)-1-(2-methoxyethyl)pyrrolidin-3-yl)urea] gave a 50% inhibitory concentration (IC50) below 100 nM.

Compound `COCCN1C[C@@H](NC(=O)Nc2c(C)c([C@H]3CCCN3)nn2-c2ccccc2)[C@H](c2ccc(F)c(F)c2)C1` [Example 583, 1-((3S,4R)-4-(3,4-difluorophenyl)-1-(2-methoxyethyl)pyrrolidin-3-yl)-3-(4-methyl-1-phenyl-3-((R)-pyrrolidin-2-yl)-1H-pyrazol-5-yl)urea dihydrochloride] yielded an IC50 below 100 nM.

By IC50 is commonly meant the concentration needed to halve the response being measured.
